As usually defined, the melting point is the temperature, or range, at which the solid turns liquid. Compound `O=c1c(C2=NS(=O)(=O)c3cc(I)ccc3N2)c(O)c2ccccc2n1CCC1CC1` showed a melting point of 234 to 236 °C.

For `CC(Br)CCn1c(=O)c(C2=Nc3ccccc3S(=O)(=O)N2)c(O)c2ccccc21` (stereo not drawn) [Example 10, 1-(3-Bromobutyl)-3-(1,1-dioxo-1,2-dihydrobenzo[1,2,4]thiadiazin-3-yl)-4-hydroxy-1-1H-quinolin-2-one], the melting point is 190 to 194.5 °C (dec.).

Regarding `O=c1c(C2=Nc3ccccc3S(=O)(=O)N2)c(O)c2ccccc2n1CC1CCCCC1` [Example 11, 1-Cyclohexylmethyl-3-(1,1-dioxo-1,2-dihydrobenzo[1,2,4]thiadiazin-3-yl)-4-hydroxy-1H-quinolin-2-one], the melting point lay within 232 to 235 °C.

`CC(C)=CCn1c(=O)c(C2=Nc3ccccc3S(=O)(=O)N2)c(O)c2ccccc21` [Example 12, 3-(1,1-Dioxo-1,2-dihydrobenzo[1,2,4]thiadiazin-3-yl)-4-hydroxy-1-(3-methylbut-2-eneyl)-1H-quinolin-2-one]: the melting point lay within 249.1 to 251.1 °C.

Take `O=c1c(C2=Nc3ccccc3S(=O)(=O)N2)c(O)c2ccccc2n1CCCC(F)(F)F` [Example 18, 3-(1, l-Dioxo-1,2-dihydrobenzo[1,2,4]thiadiazin-3-yl)-4-hydroxy-1-(4,4,4-trifluorobutyl)-1H-quinolin-2-one]: the melting point is 248.9 to 250 °C.

`O=c1c(C2=Nc3ccccc3S(=O)(=O)N2)c(O)c2ccccc2n1CCCCO` [Example 20, 3-(1,1-Dioxo-1,2-dihydrobenzo[1,2,4]thiadiazin-3-yl)-4-hydroxy-1-(4-hydroxybutyl)-1H-quinolin-2-one] gave a melting point of 238.4 to 239.6 °C.

Source of the values: US20040147739A1, “Novel anti-infectives” (priority 2003, published 2004).
